Laboratory results as given in patent US7060716B2, “Tryptase inhibitors” (Altana Pharma AG, priority 2001, dated 2006).
Counter-ions that a name gives are not always drawn.

Biological target: T1, human tryptase (Homo sapiens, UniProt P20231)
T1 construct: from tissue
Assay: Inhibition of human tryptase (apparent dissociation constant Kiapp, chromogenic substrate tos-Gly-Pro-Arg-pNA)
Assay type: biochemical
Conditions: apparent dissociation constant in the presence of substrate; heparin 0.1–50 μg/ml; equilibrium conditions; read-out: Klapp
Excerpt: The documented pathophysiological effects of mast cell tryptase are caused directly by the enzymatic activity of the protease. Accordingly, they are reduced or blocked by inhibitors which inhibit the enzymatic activity of the tryptase. A suitable measure for the affinity of a reversible inhibitor to the target protease is the equilibrium dissociation constant Ki of the enzyme-inhibitor complex. This Ki value can be determined via the effect of the inhibitor on the tryptase-induced cleavage of a chromogenic peptide-p-nitroanilide substrate or a fluorogenic peptide-aminomethylcoumarin substrate.
The dissociation constants for the tryptase-inhibitor complexes are determined under equilibrium conditions in accordance with the general proposals of Bieth (Bieth J G, Pathophysiological Interpretation of kinetic constants of protease inhibitors, Bull. Europ. Physiopath. Resp. 16:183–195, 1980) and the methods of Sommerhoff et al. (Sommerhoff C P et al., A Kazal-type inhibitor of human mast cell tryptase: Isolation from the medical leech Hirudo medicinalis, characterization, and sequence analysis, Biol. Chem. Hoppe-Seyler 375: 685–694, 1994).
Human tryptase is isolated from lung tissue or prepared recombinantly; the specific activity of the protease, determined by titration, is usually greater than 85% of the theoretical value. […]

T1 sequence (P20231 31-275): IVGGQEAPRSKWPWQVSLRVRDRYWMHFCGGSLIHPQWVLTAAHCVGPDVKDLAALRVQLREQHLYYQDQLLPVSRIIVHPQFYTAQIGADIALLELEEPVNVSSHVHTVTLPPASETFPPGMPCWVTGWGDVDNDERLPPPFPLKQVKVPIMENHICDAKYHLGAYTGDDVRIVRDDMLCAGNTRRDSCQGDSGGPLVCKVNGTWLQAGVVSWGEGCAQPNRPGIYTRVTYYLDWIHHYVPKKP

| Ki [nM] | Compound |
| --- | --- |
| 2.6 | NCc1cccc(CNC(=O)OCC#Cc2cccc(C#CCOC(=O)NCc3cccc(CN)c3)n2)c1 [Compound 1, 2,6-Bis-[3-(3-aminomethylbenzylaminocarbonyloxy)prop-1-ynyl]pyridine trihydrochloride] |
| 6 | NCc1ccc(CNC(=O)OCC#Cc2cccc(C#CCOC(=O)NCc3ccc(CN)cc3)n2)cc1 [Compound 2, 2,6-Bis-[3-(4-aminomethylbenzylaminocarbonyloxy)prop-1-ynyl]pyridine trihydrochloride] |
